This passage reports IC50 results from US9643970B2, “Substituted imidazo [1,5-a]pyrazines as PDE9 inhibitors” (H Lundbeck A/S, priority 2012, dated 2017).

For this assay, the target named is PDE9 (Homo sapiens, UniProt O76083). The assay is described as follows: PDE9 inhibition assay. Type of assay: biochemical. The procedure:
Reactions are initiated by addition of the cyclic nucleotide substrate, and reactions are allowed to proceed for one hr at room temperature before being terminated through mixing with 15 uL 8 mg/mL yttrium silicate SPA beads (Amersham). […] IC50 values were calculated by non linear regression using XLfit (IDBS).

The structures appear in SMILES notation. Where two headings read alike, the source gives them in different places.

Sequence of PDE9 (O76083 whole entry): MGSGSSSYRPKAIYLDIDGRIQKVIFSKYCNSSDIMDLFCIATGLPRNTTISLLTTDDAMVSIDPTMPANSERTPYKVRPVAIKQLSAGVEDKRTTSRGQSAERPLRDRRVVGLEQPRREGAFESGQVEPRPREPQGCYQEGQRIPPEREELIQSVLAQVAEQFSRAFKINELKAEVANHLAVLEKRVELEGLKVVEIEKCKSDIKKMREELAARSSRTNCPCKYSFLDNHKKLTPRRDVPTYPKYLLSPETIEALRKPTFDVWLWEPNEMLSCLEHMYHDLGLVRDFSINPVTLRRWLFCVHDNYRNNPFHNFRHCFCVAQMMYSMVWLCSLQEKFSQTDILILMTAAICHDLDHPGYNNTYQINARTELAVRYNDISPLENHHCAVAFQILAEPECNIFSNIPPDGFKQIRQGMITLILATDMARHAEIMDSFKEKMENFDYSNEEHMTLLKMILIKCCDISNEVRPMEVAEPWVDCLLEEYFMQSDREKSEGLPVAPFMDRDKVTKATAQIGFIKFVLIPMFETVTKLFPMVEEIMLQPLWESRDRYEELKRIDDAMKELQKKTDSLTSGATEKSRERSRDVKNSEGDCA

As for `O=c1[nH]c(CN2CCC(c3cccc(C(F)(F)F)c3)C2)cn2c(C3CCOC3)ncc12` (centres unmarked) [Compound 125, 3-tetrahydrofuran-3-yl-6-[[3-[3-(trifluoromethyl)phenyl]pyrrolidin-1-yl]methyl]-7h-imidazo[1,5-a]pyrazin-8-one], the half-inhibitory concentration (IC50) (usually the concentration needed to halve the response being measured) (SPA assay, 10 nM 3H-cAMP, 1 hour incubation, read-out: IC50) was 48 nM.
The molecule `COc1ccc(C2CN(C(C)c3cn4c(-c5ccc(F)cc5)ncc4c(=O)[nH]3)C2)cc1` (centres unmarked) [Compound 126, 3-(4-fluorophenyl)-6-[1-[3-(4-methoxyphenyl)azetidin-1-yl]ethyl]-7h-imidazo[1,5-a]pyrazin-8-one] returned a concentration for half-maximal inhibition (IC50) of 70 nM.
